Our source for the IC50, Ki and inhibition values is ChEMBL document CHEMBL4043162, “Synthesis of novel flavonoid alkaloids as α-glucosidase inhibitors” (Bioorg Med Chem, 2017).

The source made the active and inactive calls. No cut-off for these calls is given here.

Molecular target in the first experiment: not listed separately
The experiment can be described thus: Inhibition of Saccharomyces cerevisiae alpha-glucosidase pre-incubated for 15 mins before p-nitrophenyl-alpha-D-glucopyranoside substrate addition and measured after 30 mins by UV spectrometry.
Broadly, the IC50 is the midpoint of a concentration-inhibition curve. Regarding `O=c1cc(-c2ccccc2)oc2c(CN3CCN(CCO)CC3)c(O)cc(O)c12`, the IC50 was above 500 µM.
Same read-out and setting: the figure for `O=C1CC(c2ccc(O)cc2)Oc2cc(O)c(CN3CCc4ccccc4C3)c(O)c21` (configuration not stated) is 23.4 µM; for `O=C1c2c(cc(O)c(C3CCCCN3)c2O)OC(c2ccc(O)c(O)c2)C1O` (configuration not stated) it is above 500 µM; for `CCOC(=O)N1CCN(Cc2c(O)cc3oc(-c4ccccc4)cc(=O)c3c2O)CC1` it is above 500 µM.
Still for that read-out and setting: in the case of `O=c1cc(-c2ccccc2)oc2cc(O)c(CN3CCCCC3)c(O)c12` it was above 500 µM.
Same read-out and setting: the figure for `O=C1CC(c2ccc(O)cc2)Oc2cc(O)c(C3CCCCN3)c(O)c21` (configuration not stated) is 249 µM; for `O=c1cc(-c2ccccc2)oc2cc(O)c(C3CCCCN3)c(O)c12` (configuration not stated) it is above 500 µM.
With `O=c1cc(-c2ccccc2)oc2cc(O)c(CN3CCN(CCO)CC3)c(O)c12`, the IC50 is above 500 µM.
`O=c1cc(-c2ccccc2)oc2c(C3CCCCN3)c(O)cc(O)c12` (configuration not stated) came in with an IC50 above 500 µM.
The compound `O=C1CC(c2ccc(O)cc2)Oc2cc(O)c(CN3CCN(CCO)CC3)c(O)c21` (configuration not stated) returned an IC50 of 521 µM.
On the same count and under the same terms, the figure for `O=c1cc(-c2ccc(O)cc2)oc2cc(O)c(C3CCCCN3)c(O)c12` (configuration not stated) is 293 µM.
As for `CCOC(=O)c1ccc(N2CCN(Cc3c(O)cc4c(c3O)C(=O)CC(c3ccc(O)cc3)O4)CC2)cc1` (configuration not stated), the IC50 was 4.1 µM.
`COc1ccc(-c2coc3c(CN4CCCCC4)c(O)ccc3c2=O)cc1` gave an IC50 above 500 µM.
The same measure, in the same setting: in the case of `COc1ccc(C2CC(=O)c3c(cc(O)c(C4CCCCN4)c3O)O2)cc1O` (configuration not stated) it was above 500 µM.
Still for that read-out and setting: in the case of `CCOC(=O)N1CCN(Cc2c(O)cc3c(c2O)C(=O)CC(c2ccc(O)cc2)O3)CC1` (configuration not stated) it was 65.1 µM; in that of `Oc1ccc(C2CCc3c(cc(O)c(C4CCCCN4)c3O)O2)cc1` (configuration not stated), above 500 µM; in that of `CCN(CC)Cc1c(O)cc2oc(-c3ccccc3)cc(=O)c2c1O`, 217 µM.
`O=C1CC(c2ccc(O)cc2)Oc2cc(O)c(CN3CCCCC3)c(O)c21` (configuration not stated): the IC50 was determined as 82.8 µM.
The compound `O=c1cc(-c2ccccc2)oc2cc(O)c(CN3CCOCC3)c(O)c12` had an IC50 above 500 µM.
Same read-out and setting: in the case of `Oc1ccc(C2CCc3c(O)cc(O)c(C4CCCCN4)c3O2)cc1` (configuration not stated) it was above 500 µM; in that of `O=C1CC(c2ccc(O)cc2)Oc2cc(O)c(CN3CCOCC3)c(O)c21` (configuration not stated), 202 µM; in that of `O=c1cc(-c2ccccc2)oc2cc(O)c(CN3CCc4ccccc4C3)c(O)c12`, above 500 µM.
For the compound `CCOC(=O)N1CCN(Cc2c(O)c(CN3CCN(C(=O)OCC)CC3)c3oc(-c4ccccc4)cc(=O)c3c2O)CC1`, the IC50 is above 500 µM.

Molecular target in another experiment: not listed separately
The experiment can be described thus: Non-competitive inhibition of Saccharomyces cerevisiae alpha-glucosidase pre-incubated for 15 mins before p-nitrophenyl-alpha-D-glucopyranoside substrate addition and measured after 30 mins by UV spectrometry based Dixon plot.
One may read the Ki as a dissociation constant, usually derived from enzyme kinetics or from competition with a known ligand. Read a high Ki as a looser hold on the target. On to `O=C1CC(c2ccc(O)cc2)Oc2cc(O)c(CN3CCc4ccccc4C3)c(O)c21` (configuration not stated), for which the affinity, expressed as Ki, was 37.8 µM.
The same measure, in the same setting: the figure for `CCOC(=O)c1ccc(N2CCN(Cc3c(O)cc4c(c3O)C(=O)CC(c3ccc(O)cc3)O4)CC2)cc1` (configuration not stated) is 13.2 µM.

The next experiment has as its system Saccharomyces cerevisiae. Nature of the experiment: Non-competitive inhibition of Saccharomyces cerevisiae alpha-glucosidase pre-incubated for 15 mins before p-nitrophenyl-alpha-D-glucopyranoside substrate addition and measured after 30 mins by UV spectrometry based Lineweaver-Burk plot.
Regarding `O=C1CC(c2ccc(O)cc2)Oc2cc(O)c(CN3CCc4ccccc4C3)c(O)c21` (configuration not stated), the inhibition result was “Active”.
Take `CCOC(=O)c1ccc(N2CCN(Cc3c(O)cc4c(c3O)C(=O)CC(c3ccc(O)cc3)O4)CC2)cc1` (configuration not stated): the inhibition entry is “Active”.
